Test results reported in publication PMC4468202, “Improved Visualization and Specific Binding for Metabotropic Glutamate Receptor Subtype 1 (mGluR1) Using [^11C]ITMM with Ultra-High Specific Activity in Small-Animal PET” (PLoS ONE, 2015).
Read-outs that look alike come from different tables or passages of the source.

Columns and labels:
[1] = Metabolite analysis: fraction of unchanged [^11C]ITMM in the plasma; type: in vivo, rat; details: for unchanged [^11C]ITMM in the plasma: the two SAs
Experimental: (§1) A bolus (0.5 mL) of [^11C]ITMM with conventional or ultra-high SA was injected for 10 s via a catheter inserted in the tail vein. Dynamic emission scans in three-dimensional list mode were performed for 90 min (10 s x 12 frames, 20 s x 3 frames, 30 s x 3 frames, 60 s x 3 frames, 150 s x 3 frames, and 300 s x 15 frames). For counting radioactivity, blood samples were manually acquired at intervals of 10 s (0.05 mL for 50 s), 1-min intervals (0.05 mL for 5 min), and then at 10 (0.05 mL), 15 (0.2 mL), 30 (0.3 mL), 60 (0.4 mL), and 90 min (0.5 mL) after the PET scan started. For metabolite analysis, six samples of blood were obtained at 1 (0.02 mL), 5 (0.02 mL), 15 (0.05 mL), 30 (0.1 mL), 60 (0.2 mL), and 90 min (0.3 mL) after the injection. Blood samples were centrifuged at 13,000g at 4°C to separate the plasma. Levels of radioactivity in the whole blood and plasma were counted using a 1480 Wizard auto-gamma scintillation counter (Perkin-Elmer, Waltham, MA, USA). The radioactivity was corrected for decay.
Metabolite analysis was performed as described previously. Briefly, whole blood samples were treated to separate the plasma, which was deproteinized with an equivalent amount of acetonitrile. An aliquot of the supernatant obtained from the plasma was analyzed by HPLC with a radiation detector [23]. Plasma protein binding was not determined in the present study. The time curves for the fraction of unchanged [^11C]ITMM in the plasma were fitted using three exponential equations, and subsequently used for kinetic analysis.

mGluR1 [2] = test system: mGluR1; set-up: method as in PMID 23804329; details: cited from earlier work; for total distribution volume (V T): human brain
mGluR1 [3] = biological target: T1, mGluR1 (Rattus norvegicus, UniProt P23385); set-up: from tissue; host or cells: cerebellum homogenate; method as in PMID 22316010; details: affinity for mGluR1; cited from earlier work
mGluR1 [4] = biological target: T1, mGluR1; experiment: Small-animal PET with [^11C]ITMM: time-activity curves, radioactive uptake (SUV) in brain regions; type: in vivo; set-up: from tissue; host or cells: living SD rat brain (in vivo PET)
Experimental: Subsequently, a SD rat was secured in a custom-designed chamber and placed in a small-animal PET scanner (Inveon, Siemens Medical Solutions, Knoxville, TN, USA). Body temperature was maintained using a 40°C water circulation system (T/Pump TP401, Gaymar Industries, Orchard Park, NY, USA). A 24-gauge intravenous catheter (Terumo Medical Products, Tokyo, Japan) was placed in the tail vein of the rat for a bolus injection.
as §1
PET dynamic images were reconstructed with filtered back projection using a Hunning filter with a Nyquist cut-off of 0.5 cycle/pixel. PET/MRI fused images were acquired by PMOD version 3.4 (PMOD Technologies, Zurich, Switzerland). To generate the time-activity curves (TACs) of specified brain regions, volumes of interest (VOIs) were drawn encompassing the cerebellum, hippocampus, thalamus, striatum, cingulate cortex, substantia nigra, and pons. The radioactivity was decay-corrected to the injection time and is expressed as the standardized uptake value (SUV), which was normalized to the injected radioactivity and body weight. SUV was calculated according to the following formula: SUV = (radioactivity per milliliter tissue / injected radioactivity) × gram body weight.

mGluR1 [5] = biological target: T1, mGluR1; experiment: Estimation of equilibrium state from tissue-to-plasma concentration ratios C t'(t)/C P'(t); type: in vivo; set-up: from tissue; host or cells: living SD rat brain (in vivo PET)
Experimental: Estimations of the equilibrium state of [^11C]ITMM in each brain region were obtained using averaged plasma input functions and averaged tissue TACs. Theoretical radioactive concentrations in each brain region (C t ’) and the plasma input function of [^11C]ITMM (C P ’) were estimated using averaged measurements extracted between 5 and 90 min after the injection and subjected to three exponential least square fitting [Radioactivity (t) = A*exp(-at) + B*exp(-bt) + C*exp(-ct)].
The estimations over 90 min after the injection were calculated by extrapolating based on the equation as described above. […]

[6] = cingulate cortex, conventional SA
[7] = cingulate cortex, ultra-high SA
[8] = substantia nigra, conventional SA
[9] = substantia nigra, ultra-high SA

T1 sequence (P23385 19-1199): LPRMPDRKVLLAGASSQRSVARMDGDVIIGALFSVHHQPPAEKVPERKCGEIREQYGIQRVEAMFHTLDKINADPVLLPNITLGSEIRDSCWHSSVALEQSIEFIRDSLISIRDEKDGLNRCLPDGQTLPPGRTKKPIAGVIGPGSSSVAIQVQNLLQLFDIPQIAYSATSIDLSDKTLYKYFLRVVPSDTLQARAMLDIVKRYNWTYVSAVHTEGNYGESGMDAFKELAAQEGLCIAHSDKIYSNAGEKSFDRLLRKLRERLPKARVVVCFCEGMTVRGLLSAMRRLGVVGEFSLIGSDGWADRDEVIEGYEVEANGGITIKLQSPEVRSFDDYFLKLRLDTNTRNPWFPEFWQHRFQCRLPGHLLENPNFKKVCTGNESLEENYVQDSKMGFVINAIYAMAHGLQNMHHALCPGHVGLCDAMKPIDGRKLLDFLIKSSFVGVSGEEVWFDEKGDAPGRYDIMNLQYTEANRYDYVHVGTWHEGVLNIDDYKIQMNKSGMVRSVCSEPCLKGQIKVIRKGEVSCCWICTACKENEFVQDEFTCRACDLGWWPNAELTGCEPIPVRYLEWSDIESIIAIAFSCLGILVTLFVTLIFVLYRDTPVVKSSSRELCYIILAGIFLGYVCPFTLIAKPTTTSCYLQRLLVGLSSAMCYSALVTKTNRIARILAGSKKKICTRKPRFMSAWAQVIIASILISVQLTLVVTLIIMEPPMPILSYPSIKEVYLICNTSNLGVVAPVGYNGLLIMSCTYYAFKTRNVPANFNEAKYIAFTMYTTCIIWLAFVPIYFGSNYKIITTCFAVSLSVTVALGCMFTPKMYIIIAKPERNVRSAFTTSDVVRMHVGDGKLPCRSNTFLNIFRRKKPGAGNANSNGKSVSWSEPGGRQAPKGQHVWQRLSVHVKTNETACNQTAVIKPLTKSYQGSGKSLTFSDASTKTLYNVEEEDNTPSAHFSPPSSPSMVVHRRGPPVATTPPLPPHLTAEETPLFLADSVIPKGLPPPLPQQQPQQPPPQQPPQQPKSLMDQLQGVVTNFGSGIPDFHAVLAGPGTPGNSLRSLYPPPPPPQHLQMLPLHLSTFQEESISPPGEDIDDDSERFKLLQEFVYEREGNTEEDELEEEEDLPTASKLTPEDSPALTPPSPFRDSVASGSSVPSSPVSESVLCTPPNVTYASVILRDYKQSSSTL

With `CC(C)Nc1cc(-c2csc(N(C)C(=O)c3ccc(O[11CH3])cc3)n2)ncn1` [[^11C]ITMM, N-[4-[6-(isopropylamino)pyrimidin-4-yl]-1,3-thiazol-2-yl]-4-[^11C]methoxy-N-methyl-benzamide] the “Unchanged form in the plasma” value ([1]; 1 min after injection, conventional SA) was 95.2 ± 1.2%, the “Unchanged form in the plasma” value ([1]; 1 min after injection, ultra-high SA) was 97.3 ± 0.6% and the “Unchanged form in the plasma” value ([1]; 5 min after injection, conventional SA) was 74.0 ± 2.1%. For the same compound, the “Unchanged form in the plasma” value ([1]; 5 min after injection, ultra-high SA) was 77.1 ± 3.2%, the “Unchanged form in the plasma” value ([1]; 15 min after injection, conventional SA) was 53.7 ± 2.6% and the “unchanged [^11C]ITMM in the plasma” value ([1]; 15 min after injection) was “roughly 55%”. The “Unchanged form in the plasma” value ([1]; 15 min after injection, ultra-high SA) was 56.2 ± 4.0%, the “Unchanged form in the plasma” value ([1]; 30 min after injection, conventional SA) was 36.8 ± 2.6% and the “Unchanged form in the plasma” value ([1]; 30 min after injection, ultra-high SA) was 40.0 ± 4.0%. For the same compound, the “Unchanged form in the plasma” value ([1]; 60 min after injection, conventional SA) was 21.7 ± 2.0%, the “Unchanged form in the plasma” value ([1]; 60 min after injection, ultra-high SA) was 24.7 ± 2.9% and the “Unchanged form in the plasma” value ([1]; 90 min after injection, conventional SA) was 15.7 ± 1.3%. The “unchanged [^11C]ITMM in the plasma” value ([1]; 90 min after injection) was “roughly 15%”, the “Unchanged form in the plasma” value ([1]; 90 min after injection, ultra-high SA) was 18.2 ± 2.5% and the “[^11C]ITMM that reached the brain” value (mGluR1 [2]; healthy humans, first-in human PET study) was 0.001–0.004 % of the injection dose/mL. For the same compound, the “total distribution volume (V T)” value (mGluR1 [2]; cerebellum (mGluR1-rich region)) was 2.61 mL/cm^3, the “total distribution volume (V T)” value (mGluR1 [2]; pons (mGluR1-negligible region)) was 0.52 mL/cm^3 and the Ki (mGluR1 [3]) was 0.0126 µM. It also gave an AUC (mGluR1 [4]; cerebellum, conventional SA) of 243.2 ± 9.2 SUV · min, a maximum uptake (mGluR1 [4]; cerebellum, conventional SA) of 3.0 SUV and an AUC (mGluR1 [4]; cerebellum, ultra-high SA) of 269.9 ± 15.8 SUV · min. It also gave a maximum uptake (mGluR1 [4]; cerebellum, ultra-high SA) of 3.4 SUV, an AUC (mGluR1 [4]; [6]) of 156.9 ± 5.3 SUV · min and a maximum uptake (mGluR1 [4]; [6]) of 2.0 SUV. It also gave an AUC (mGluR1 [4]; [7]) of 184.7 ± 11.1 SUV · min, a maximum uptake (mGluR1 [4]; [7]) of 2.3 SUV and an AUC (mGluR1 [4]; hippocampus, conventional SA) of 160.8 ± 4.6 SUV · min. For the same compound, the maximum uptake (mGluR1 [4]; hippocampus, conventional SA) was 2.0 SUV, the AUC (mGluR1 [4]; hippocampus, ultra-high SA) was 180.2 ± 10.9 SUV · min and the maximum uptake (mGluR1 [4]; hippocampus, ultra-high SA) was 2.2 SUV. For the same compound, the AUC (mGluR1 [4]; pons, conventional SA) was 56.0 ± 1.6 SUV · min, the maximum uptake (mGluR1 [4]; pons, conventional SA) was 0.9 SUV and the AUC (mGluR1 [4]; pons, ultra-high SA) was 62.7 ± 3.6 SUV · min. It also gave a maximum uptake (mGluR1 [4]; pons, ultra-high SA) of 0.9 SUV, an AUC (mGluR1 [4]; striatum, conventional SA) of 169.7 ± 6.0 SUV · min and a maximum uptake (mGluR1 [4]; striatum, conventional SA) of 2.1 SUV. The AUC (mGluR1 [4]; striatum, ultra-high SA) was 197.3 ± 11.1 SUV · min, the maximum uptake (mGluR1 [4]; striatum, ultra-high SA) was 2.4 SUV and the AUC (mGluR1 [4]; [8]) was 149.9 ± 6.7 SUV · min. For the same compound, the maximum uptake (mGluR1 [4]; [8]) was 1.8 SUV, the AUC (mGluR1 [4]; [9]) was 178.9 ± 10.8 SUV · min and the maximum uptake (mGluR1 [4]; [9]) was 2.2 SUV. For the same compound, the AUC (mGluR1 [4]; thalamus, conventional SA) was 188.4 ± 6.9 SUV · min, the maximum uptake (mGluR1 [4]; thalamus, conventional SA) was 2.3 SUV and the AUC (mGluR1 [4]; thalamus, ultra-high SA) was 214.2 ± 12.2 SUV · min. The maximum uptake (mGluR1 [4]; thalamus, ultra-high SA) was 2.6 SUV, the “delay of peak time of radioactivity” value (mGluR1 [4]; ultra-high SA compared with conventional SA, brain regions) was 4 to 10 min and the “bindings reached, of the equilibrium state” value (mGluR1 [5]; both SA conditions, all brain regions, 90 min PET) was 80–98%. The equilibrium times (mGluR1 [5]; both SA conditions, all brain regions, after the injection) was 100 to 150 min, the estimated equilibrium time (mGluR1 [5]; cerebellum, conventional SA) was 150 min and the “uptake of radioactivity reached, of equilibrium state” value (“uptake of radioactivity reached” for short) (mGluR1 [5]; cerebellum, conventional SA, 90 min PET) was 80%. For the same compound, the estimated equilibrium time (mGluR1 [5]; cerebellum, ultra-high SA) was 150 min, the “uptake of radioactivity reached” value (mGluR1 [5]; cerebellum, ultra-high SA, 90 min PET) was 82% and the estimated equilibrium time (mGluR1 [5]; [6]) was 100 min. The “uptake of radioactivity reached” value (mGluR1 [5]; cingulate cortex, conventional SA, 90 min PET) was 96%, the estimated equilibrium time (mGluR1 [5]; [7]) was 120 min and the “uptake of radioactivity reached” value (mGluR1 [5]; cingulate cortex, ultra-high SA, 90 min PET) was 91%. For the same compound, the estimated equilibrium time (mGluR1 [5]; hippocampus, conventional SA) was 120 min, the “uptake of radioactivity reached” value (mGluR1 [5]; hippocampus, conventional SA, 90 min PET) was 93% and the estimated equilibrium time (mGluR1 [5]; hippocampus, ultra-high SA) was 130 min. The “uptake of radioactivity reached” value (mGluR1 [5]; hippocampus, ultra-high SA, 90 min PET) was 89%, the estimated equilibrium time (mGluR1 [5]; pons, conventional SA) was 110 min and the “uptake of radioactivity reached” value (mGluR1 [5]; pons, conventional SA, 90 min PET) was 94%. The estimated equilibrium time (mGluR1 [5]; pons, ultra-high SA) was 100 min, the “uptake of radioactivity reached” value (mGluR1 [5]; pons, ultra-high SA, 90 min PET) was 98% and the estimated equilibrium time (mGluR1 [5]; striatum, conventional SA) was 120 min. The “uptake of radioactivity reached” value (mGluR1 [5]; striatum, conventional SA, 90 min PET) was 93%, the estimated equilibrium time (mGluR1 [5]; striatum, ultra-high SA) was 130 min and the “uptake of radioactivity reached” value (mGluR1 [5]; striatum, ultra-high SA, 90 min PET) was 90%. For the same compound, the estimated equilibrium time (mGluR1 [5]; [8]) was 110 min, the “uptake of radioactivity reached” value (mGluR1 [5]; substantia nigra, conventional SA, 90 min PET) was 94% and the estimated equilibrium time (mGluR1 [5]; [9]) was 100 min. For the same compound, the “uptake of radioactivity reached” value (mGluR1 [5]; substantia nigra, ultra-high SA, 90 min PET) was 98%, the estimated equilibrium time (mGluR1 [5]; thalamus, conventional SA) was 120 min and the “uptake of radioactivity reached” value (mGluR1 [5]; thalamus, conventional SA, 90 min PET) was 91%. The estimated equilibrium time (mGluR1 [5]; thalamus, ultra-high SA) was 140 min and the “uptake of radioactivity reached” value (mGluR1 [5]; thalamus, ultra-high SA, 90 min PET) was 87%.
